Results as given in ChEMBL document CHEMBL1268962 (Bioorg Med Chem Lett, 2010).

Legend:
Format in all cases: functional, cell-based
[1] = test system: L1210; experiment: Cytotoxicity against mouse L1210 cells after 72 hrs; details: L1210, 72 h
[2] = test system: HCT-116; experiment: Cytotoxicity against vinblastine-resistant human HCT116 cells after 72 hrs; details: HCT-116, 72 h
[3] = test system: HCT-116; experiment: Cytotoxicity against human HCT116 cells after 72 hrs; details: HCT-116, 72 h

**Q.** How did the IC50 [1] turn out when `CC[C@]1(O)C[C@@H]2CN(CCc3c([nH]c4ccccc34)[C@@](C(=O)OC)(c3cc4c(cc3OC)N(C)[C@H]3[C@@](O)(C(=O)OC)[C@H](OC(C)=O)[C@]5(CC)C=CCN6CC[C@]43[C@@H]65)C2)C1` [VINBLASTINE] was run?
**A.** The IC50 was 0.006 µM.

**Q.** And the IC50 [2]?
**A.** Its IC50 is 0.6 µM.

**Q.** How did the IC50 [3] turn out when `CCC1=C[C@@H]2CN(CCc3c([nH]c4ccccc34)[C@@](C(N)=O)(c3cc4c(cc3OC)N(C)C3[C@]45CCN4CC=C[C@@](CC)([C@@H](OC(C)=O)[C@]3(O)C(=O)OC)[C@H]45)C2)C1` (some centres undefined) was run?
**A.** Its IC50 is over 10 µM.

**Q.** What about the IC50 [1] of the same compound?
**A.** Its IC50 is over 10 µM.

**Q.** And the IC50 [2]?
**A.** The IC50 was over 10 µM.

**Q.** Which results are given for `CCC1=C[C@@H]2CN(CCc3c([nH]c4ccccc34)[C@@](C(=O)OC)(c3cc4c(cc3OC)N(C)C3[C@]45CCN4CC=C[C@@](CC)([C@@H](OC(C)=O)[C@]3(O)C(=O)OC)[C@H]45)C2)C1` (some centres undefined)?
**A.** IC50 [3]: 0.075 µM; IC50 [1]: 0.065 µM; IC50 [2]: 0.6 µM

**Q.** `CC[C@]1(O)C[C@@H]2CN(CCc3c([nH]c4ccccc34)[C@@](C(N)=O)(c3cc4c(cc3OC)N(C)C3[C@]45CCN4CC=C[C@@](CC)([C@@H](OC(C)=O)[C@]3(O)C(=O)OC)[C@H]45)C2)C1` (some centres undefined) was tested. Which IC50 [3] did it give?
**A.** The IC50 was over 10 µM.

**Q.** And the IC50 [1]?
**A.** The IC50 was over 10 µM.

**Q.** And the IC50 [2]?
**A.** Its IC50 is over 10 µM.

**Q.** What does the source list for `CCC1=C[C@@H]2CN(CCc3c([nH]c4ccccc34)[C@@](C#N)(c3cc4c(cc3OC)N(C)C3[C@]45CCN4CC=C[C@@](CC)([C@@H](OC(C)=O)[C@]3(O)C(=O)OC)[C@H]45)C2)C1` (some centres undefined)?
**A.** IC50 [3]: 6.1 µM; IC50 [1]: 6.5 µM; IC50 [2]: 6.8 µM

**Q.** What does the source list for `CCC1=C[C@@H]2CN(CCc3c([nH]c4ccccc34)[C@@](C=O)(c3cc4c(cc3OC)N(C)C3[C@]45CCN4CC=C[C@@](CC)([C@@H](OC(C)=O)[C@]3(O)C(=O)OC)[C@H]45)C2)C1` (some centres undefined)?
**A.** IC50 [3]: 7 µM; IC50 [1]: 6.3 µM; IC50 [2]: > 10 µM

**Q.** Which IC50 [3] does the source give for `CC[C@]1(O)C[C@@H]2CN(CCc3c([nH]c4ccccc34)[C@@](CCO)(c3cc4c(cc3OC)N(C)C3[C@]45CCN4CC=C[C@@](CC)([C@@H](OC(C)=O)[C@]3(O)C(=O)OC)[C@H]45)C2)C1` (some centres undefined) here?
**A.** Its IC50 is 5.8 µM.

**Q.** And the IC50 [1]?
**A.** The IC50 was 6.5 µM.

**Q.** And the IC50 [2]?
**A.** The IC50 was over 10 µM.

**Q.** `CCOC(=O)[C@]1(c2cc3c(cc2OC)N(C)C2[C@]34CCN3CC=C[C@@](CC)([C@@H](OC(C)=O)[C@]2(O)C(=O)OC)[C@H]34)C[C@@H]2C=C(CC)CN(CCc3c1[nH]c1ccccc31)C2` (some centres undefined) was tested. Which IC50 [3] did it give?
**A.** The IC50 was 0.64 µM.

**Q.** And the IC50 [1]?
**A.** Its IC50 is 0.62 µM.

**Q.** And the IC50 [2]?
**A.** Its IC50 is 4.1 µM.

**Q.** Which results are given for `CCOC(=O)[C@]1(c2cc3c(cc2OC)N(C)C2[C@]34CCN3CC=C[C@@](CC)([C@@H](OC(C)=O)[C@]2(O)C(=O)OC)[C@H]34)C[C@H]2CN(CCc3c1[nH]c1ccccc31)C[C@](O)(CC)C2` (some centres undefined)?
**A.** IC50 [3]: 0.07 µM; IC50 [1]: 0.06 µM; IC50 [2]: 0.83 µM

**Q.** Which results are given for `CC[C@]1(O)C[C@@H]2CN(CCc3c([nH]c4ccccc34)[C@@](C#N)(c3cc4c(cc3OC)N(C)C3[C@]45CCN4CC=C[C@@](CC)([C@@H](OC(C)=O)[C@]3(O)C(=O)OC)[C@H]45)C2)C1` (some centres undefined)?
**A.** IC50 [3]: 0.67 µM; IC50 [1]: 0.63 µM; IC50 [2]: 7.4 µM
